The values that follow come from patent US8598344B2, “CDKI pathway inhibitors and uses thereof” (Senex Biotechnology, priority 2009, dated 2013).

The test system of one assay is HIV-1. To be noted: read-out: EC50, decrease in fraction of HIV-infected (p24-positive) cells; day 5.
The next assay has as its system SW480. Put plainly: Colon carcinoma cell proliferation, FACS count of live cells. It is filed as cell-based, human. The conditions noted are these: 72 hrs, 2.5, 5 or 10 μM. The protocol:
(§1) Inhibition of β-catenin, which is positively regulated by CDK8, was reported to inhibit proliferation of some colon carcinoma cell lines (Firestein et al., 2008). We have therefore determined the ability of compound 1 to inhibit the proliferation of several colon carcinoma cell lines, including human DLD1, HCT116, SW480 and murine C26. This analysis waqs carried out by incubating cells for 72 hrs in the presence of 0, 2.5, 5 or 10 μM compound 1, followed by FACS measurement of the number of live cells, as defined by the lack of uptake of membrane-impermeable dye propidium iodide.

In another assay the test system is DLD1 cells. Described as above. The class given is cell-based, human. The conditions noted are these: 72 hrs; read-out: IC50, growth inhibition. The protocol:
as §1

The subject of a further assay is HCT116. The assay is described as above. The class given is cell-based, human. The conditions noted are these: 72 hrs, 2.5, 5 or 10 μM. The protocol: as §1
The next assay concerns HUVECs. Put plainly: HUVEC proliferation, 3-day MTT assay. It is filed as cell-based, human.
The target of another assay is T1, ALK (Homo sapiens, UniProt Q9UM73).
T1 construct: purchased KinomeScan, a division of Ambit Biosciences
Put plainly: KinomeScan competition binding assay. The conditions noted are these: 10 μM compound. The protocol: (§2) The KINOMEscan assay has been described in detail in Fabian et al., Nat. Biotechnol. 23: 329 (2005) and Karaman et al., Nat. Biotechnol. 26: 127 (2008).
(§3) The KinomeScan assay is based on a competition binding assay that quantitatively measures the ability of a compound to compete with an immobilized, ATP site directed ligand. The assay is performed by combining three components: DNA-tagged kinase; immobilized ligand; and a test compound. The ability of the test compound to compete with the immobilized ligand is measured via quantitative PCR of the DNA tag.

The next assay addresses T2, PRKG2 (Homo sapiens, UniProt Q13237).
T2 construct: purchased KinomeScan, a division of Ambit Biosciences
Put plainly: KinomeScan competition binding assay. To be noted: 10 μM compound. The protocol: as §2, §3

In the next assay the target is T3, ROCK1 (Homo sapiens, UniProt Q13464).
T3 construct: purchased KinomeScan, a division of Ambit Biosciences
T3 sequence (Q13464 whole entry): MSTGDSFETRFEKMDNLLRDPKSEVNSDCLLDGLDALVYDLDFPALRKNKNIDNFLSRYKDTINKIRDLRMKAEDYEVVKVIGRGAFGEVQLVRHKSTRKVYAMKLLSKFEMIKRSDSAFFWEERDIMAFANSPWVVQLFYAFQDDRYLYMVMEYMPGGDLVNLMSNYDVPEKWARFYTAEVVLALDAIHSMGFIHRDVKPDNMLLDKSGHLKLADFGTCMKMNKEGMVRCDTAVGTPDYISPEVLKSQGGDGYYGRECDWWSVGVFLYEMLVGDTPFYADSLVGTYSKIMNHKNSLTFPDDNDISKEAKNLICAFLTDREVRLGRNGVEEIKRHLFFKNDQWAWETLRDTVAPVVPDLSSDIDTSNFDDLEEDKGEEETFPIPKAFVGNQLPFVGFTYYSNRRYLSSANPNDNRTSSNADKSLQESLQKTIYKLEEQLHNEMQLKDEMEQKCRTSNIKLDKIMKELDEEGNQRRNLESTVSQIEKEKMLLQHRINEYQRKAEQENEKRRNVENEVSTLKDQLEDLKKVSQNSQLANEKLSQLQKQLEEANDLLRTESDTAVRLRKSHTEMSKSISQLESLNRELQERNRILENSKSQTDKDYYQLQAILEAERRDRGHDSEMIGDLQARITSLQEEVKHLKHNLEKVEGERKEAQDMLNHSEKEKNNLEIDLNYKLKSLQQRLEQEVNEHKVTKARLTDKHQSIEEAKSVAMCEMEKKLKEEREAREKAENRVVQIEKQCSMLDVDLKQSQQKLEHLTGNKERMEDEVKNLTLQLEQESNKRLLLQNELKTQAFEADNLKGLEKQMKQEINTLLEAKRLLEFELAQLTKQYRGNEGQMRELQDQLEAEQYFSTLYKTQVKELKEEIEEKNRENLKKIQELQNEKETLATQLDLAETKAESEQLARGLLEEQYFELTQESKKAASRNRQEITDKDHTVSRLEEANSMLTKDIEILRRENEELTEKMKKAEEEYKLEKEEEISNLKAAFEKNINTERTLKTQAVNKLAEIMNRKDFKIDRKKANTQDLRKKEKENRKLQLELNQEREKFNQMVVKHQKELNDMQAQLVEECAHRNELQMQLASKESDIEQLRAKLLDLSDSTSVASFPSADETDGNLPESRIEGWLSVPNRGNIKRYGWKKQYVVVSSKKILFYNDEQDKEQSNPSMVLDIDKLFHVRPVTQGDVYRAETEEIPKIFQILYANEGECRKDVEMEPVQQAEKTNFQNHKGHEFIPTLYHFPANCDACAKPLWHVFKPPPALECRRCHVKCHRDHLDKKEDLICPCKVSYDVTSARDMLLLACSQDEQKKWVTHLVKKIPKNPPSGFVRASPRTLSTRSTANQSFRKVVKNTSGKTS
Nature of the assay: KinomeScan competition binding assay. To be noted: 10 μM compound. The protocol: as §2, §3

In another assay the target is T4, MET (Homo sapiens, UniProt P08581).
T4 construct: purchased KinomeScan, a division of Ambit Biosciences
T4 sequence (P08581 25-1390): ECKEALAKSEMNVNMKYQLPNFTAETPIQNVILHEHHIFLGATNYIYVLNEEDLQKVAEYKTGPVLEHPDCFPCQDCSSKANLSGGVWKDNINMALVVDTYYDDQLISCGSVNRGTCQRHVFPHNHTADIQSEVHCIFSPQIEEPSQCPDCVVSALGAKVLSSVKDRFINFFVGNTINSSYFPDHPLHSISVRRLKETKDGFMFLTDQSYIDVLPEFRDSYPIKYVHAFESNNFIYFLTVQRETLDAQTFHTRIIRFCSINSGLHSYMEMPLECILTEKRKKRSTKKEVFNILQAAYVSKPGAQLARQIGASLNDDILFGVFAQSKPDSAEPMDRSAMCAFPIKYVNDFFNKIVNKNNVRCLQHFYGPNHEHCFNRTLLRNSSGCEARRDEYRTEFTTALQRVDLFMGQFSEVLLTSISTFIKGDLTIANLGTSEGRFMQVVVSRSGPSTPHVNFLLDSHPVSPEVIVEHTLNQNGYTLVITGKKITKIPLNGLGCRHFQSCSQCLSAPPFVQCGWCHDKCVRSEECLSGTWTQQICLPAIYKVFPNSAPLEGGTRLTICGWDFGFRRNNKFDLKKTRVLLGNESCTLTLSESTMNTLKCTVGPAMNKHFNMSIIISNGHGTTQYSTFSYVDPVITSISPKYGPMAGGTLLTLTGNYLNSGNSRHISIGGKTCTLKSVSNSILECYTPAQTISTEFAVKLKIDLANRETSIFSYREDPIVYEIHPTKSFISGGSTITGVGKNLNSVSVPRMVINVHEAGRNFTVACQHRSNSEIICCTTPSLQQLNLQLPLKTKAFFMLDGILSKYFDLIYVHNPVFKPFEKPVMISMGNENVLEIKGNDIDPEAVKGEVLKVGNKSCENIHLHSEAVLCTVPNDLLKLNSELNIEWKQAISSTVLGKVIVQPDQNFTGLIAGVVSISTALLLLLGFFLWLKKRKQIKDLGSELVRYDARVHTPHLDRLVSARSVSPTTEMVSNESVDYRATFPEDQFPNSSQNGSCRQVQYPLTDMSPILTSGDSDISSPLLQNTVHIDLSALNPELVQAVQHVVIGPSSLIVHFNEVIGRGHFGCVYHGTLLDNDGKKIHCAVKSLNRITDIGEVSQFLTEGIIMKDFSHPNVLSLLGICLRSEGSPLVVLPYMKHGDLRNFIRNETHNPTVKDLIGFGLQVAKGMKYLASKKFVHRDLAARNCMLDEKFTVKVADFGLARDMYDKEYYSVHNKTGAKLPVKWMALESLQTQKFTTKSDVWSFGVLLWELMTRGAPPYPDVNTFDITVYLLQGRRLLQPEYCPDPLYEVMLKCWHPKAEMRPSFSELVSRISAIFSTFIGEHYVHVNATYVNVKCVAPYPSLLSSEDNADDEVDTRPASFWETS
Put plainly: KinomeScan competition binding assay. To be noted: 10 μM compound. The protocol:
as §2, §3

The target in another assay is T5, RIOK2 (Homo sapiens, UniProt Q9BVS4).
T5 construct: purchased KinomeScan, a division of Ambit Biosciences
Put plainly: KinomeScan competition binding assay. To be noted: 10 μM compound. The protocol:
as §2, §3

A further assay deals with T6, LTK (Homo sapiens, UniProt P29376).
T6 construct: purchased KinomeScan, a division of Ambit Biosciences
Put plainly: KinomeScan competition binding assay. To be noted: 10 μM compound. The protocol: as §2, §3

For another assay, the target named is T7, ROS1 (Homo sapiens, UniProt P08922).
T7 construct: purchased KinomeScan, a division of Ambit Biosciences
Put plainly: KinomeScan competition binding assay. To be noted: 10 μM compound. The protocol: as §2, §3

The next assay concerns the target T8, PKACb (Homo sapiens, UniProt P22694).
T8 construct: purchased KinomeScan, a division of Ambit Biosciences
Put plainly: KinomeScan competition binding assay. To be noted: 10 μM compound. The protocol:
as §2, §3

The target of another assay is T9, PKACa (Homo sapiens, UniProt P17612).
T9 construct: purchased KinomeScan, a division of Ambit Biosciences
Nature of the assay: KinomeScan competition binding assay. To be noted: 10 μM compound. The protocol:
as §2, §3

A further assay has as its target T10, JNK1 (Homo sapiens, UniProt P45983).
T10 construct: purchased KinomeScan, a division of Ambit Biosciences
Nature of the assay: KinomeScan competition binding assay. To be noted: 10 μM compound. The protocol:
as §2, §3

The next assay addresses T11, ROCK2 (Homo sapiens, UniProt O75116).
T11 construct: purchased KinomeScan, a division of Ambit Biosciences
Put plainly: KinomeScan competition binding assay. To be noted: 10 μM compound. The protocol: as §2, §3

The next assay addresses T12, PIM2 (Homo sapiens, UniProt Q9P1W9).
T12 construct: purchased KinomeScan, a division of Ambit Biosciences
Nature of the assay: KinomeScan competition binding assay. The conditions noted are these: 10 μM compound. The protocol:
as §2, §3

Assay [1] deals with irradiated, senescent WI38 fibroblasts. Nature of the assay: Paracrine antiapoptotic activity of irradiated, senescent WI38 fibroblasts (survival of C8 cells in low serum). It is filed as cell-based. The conditions noted are these: C8 cell luciferase, 0.5% serum. An excerpt:
As discussed by Roninson (Cancer Lett. 179, 1-14, 2002), all the treatments known to induce the production of tumor-promoting secreted factors by cancer-associated stromal fibroblasts activate the CDKI pathway, including exposure to ionizing radiation and the induction of senescence. Since this pathway is the target of compounds according to the invention, such compounds may be the first agents to target tumor-supporting activities of cancer-associated fibroblasts. Some of the fibroblast-activating treatments include exposure to ionizing radiation and the induction of senescence through various means (Krtolica et al., Proc. Natl. Acad. Sci. USA 98, 12072, 2001). We have adopted a 96-well assay for anti-apoptotic activity that we have previously used with p21-expressing fibrosarcoma cells (Chang et al., Proc. Natl. Acad. Sci. USA 97, 4291-4296, 2000), to measure a tumor-promoting activity of normal proliferating fibroblasts and fibroblasts exposed to ionizing radiation and consequently developing the senescent phenotype. In this assay, WI38 fibroblasts are irradiated with 10 Gy using an MDS Nordion Gammacell 40 irradiator, or left unirradiated. […] On day 7, cells are lysed and the amount of luciferase activity associated with C8 cells is determined. […]

The structures appear in SMILES notation.

T2 sequence (Q13237 whole entry): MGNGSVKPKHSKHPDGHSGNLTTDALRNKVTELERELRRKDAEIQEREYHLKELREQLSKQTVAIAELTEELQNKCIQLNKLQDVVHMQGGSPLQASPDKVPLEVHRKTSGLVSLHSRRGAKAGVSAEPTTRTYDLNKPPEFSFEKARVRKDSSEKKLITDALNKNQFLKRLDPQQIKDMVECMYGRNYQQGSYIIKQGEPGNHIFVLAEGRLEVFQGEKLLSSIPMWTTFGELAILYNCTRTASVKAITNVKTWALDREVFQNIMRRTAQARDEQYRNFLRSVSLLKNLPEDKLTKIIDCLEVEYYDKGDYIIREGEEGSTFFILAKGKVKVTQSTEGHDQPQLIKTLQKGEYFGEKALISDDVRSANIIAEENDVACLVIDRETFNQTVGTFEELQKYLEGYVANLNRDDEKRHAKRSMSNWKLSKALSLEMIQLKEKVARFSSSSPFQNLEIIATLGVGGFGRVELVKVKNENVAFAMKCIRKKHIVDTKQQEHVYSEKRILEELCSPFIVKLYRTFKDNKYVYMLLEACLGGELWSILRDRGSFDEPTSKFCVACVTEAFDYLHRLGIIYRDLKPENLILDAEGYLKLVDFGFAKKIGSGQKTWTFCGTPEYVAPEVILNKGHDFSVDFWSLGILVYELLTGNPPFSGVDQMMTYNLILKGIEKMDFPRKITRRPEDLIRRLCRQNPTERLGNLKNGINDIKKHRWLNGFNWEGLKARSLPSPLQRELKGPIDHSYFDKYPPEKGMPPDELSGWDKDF
T11 sequence (O75116 whole entry): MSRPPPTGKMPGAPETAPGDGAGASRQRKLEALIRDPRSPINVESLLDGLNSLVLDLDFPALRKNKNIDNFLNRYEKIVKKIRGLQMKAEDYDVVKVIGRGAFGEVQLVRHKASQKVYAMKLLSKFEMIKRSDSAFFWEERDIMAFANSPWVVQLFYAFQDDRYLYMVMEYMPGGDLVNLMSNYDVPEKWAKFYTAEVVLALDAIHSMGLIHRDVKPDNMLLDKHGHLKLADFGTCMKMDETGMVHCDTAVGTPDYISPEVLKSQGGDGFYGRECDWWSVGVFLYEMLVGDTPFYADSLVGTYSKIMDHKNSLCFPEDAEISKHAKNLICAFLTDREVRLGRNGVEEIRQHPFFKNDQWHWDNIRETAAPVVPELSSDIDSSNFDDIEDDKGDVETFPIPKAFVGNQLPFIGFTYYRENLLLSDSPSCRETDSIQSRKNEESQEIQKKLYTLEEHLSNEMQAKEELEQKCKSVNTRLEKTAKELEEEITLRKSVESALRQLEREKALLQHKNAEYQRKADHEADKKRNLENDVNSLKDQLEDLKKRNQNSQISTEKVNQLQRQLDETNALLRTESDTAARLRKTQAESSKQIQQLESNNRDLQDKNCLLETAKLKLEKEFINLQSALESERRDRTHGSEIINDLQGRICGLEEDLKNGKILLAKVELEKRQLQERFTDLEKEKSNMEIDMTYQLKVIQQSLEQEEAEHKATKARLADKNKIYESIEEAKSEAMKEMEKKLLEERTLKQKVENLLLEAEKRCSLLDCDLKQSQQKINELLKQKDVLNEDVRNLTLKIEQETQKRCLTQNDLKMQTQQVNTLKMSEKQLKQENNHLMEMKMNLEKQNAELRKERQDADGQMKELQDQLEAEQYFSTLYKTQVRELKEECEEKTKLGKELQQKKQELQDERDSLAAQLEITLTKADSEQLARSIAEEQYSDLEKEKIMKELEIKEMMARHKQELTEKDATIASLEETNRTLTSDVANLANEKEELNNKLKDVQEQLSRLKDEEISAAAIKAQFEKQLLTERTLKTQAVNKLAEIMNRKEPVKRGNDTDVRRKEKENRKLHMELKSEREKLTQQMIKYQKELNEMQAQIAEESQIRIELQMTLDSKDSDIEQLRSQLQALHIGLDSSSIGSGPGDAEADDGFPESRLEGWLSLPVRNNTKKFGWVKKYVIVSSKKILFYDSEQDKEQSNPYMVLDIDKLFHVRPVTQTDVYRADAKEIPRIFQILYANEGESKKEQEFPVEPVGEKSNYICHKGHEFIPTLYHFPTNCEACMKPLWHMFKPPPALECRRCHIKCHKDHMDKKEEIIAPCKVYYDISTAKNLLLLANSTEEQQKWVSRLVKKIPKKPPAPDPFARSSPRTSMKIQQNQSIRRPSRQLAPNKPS
Protocol for HIV-1: HIV replication was assayed in a cell-to-cell model of HIV-1 transmission using chronically infected H9IIIB as donor cells cocultivated with uninfected CEM-ss leukemia cell line as recipient cells. 1 ml of RPMI1640 medium (+10% Fetal Bovine Serum+Penicillin/Streptomycin+glutamine) containing 10^4 H9IIIB cells was mixed with 1 ml of the same medium containing 10^6 CEM-ss cells. […] The suspended cells were placed into a 25 cm^2 flask and incubated at 37° C., 5% CO2. On day 3, the cells were counted with a light microscope and an hemocytometer after trypan blue staining, which was used to determine the fraction of viable (trypan blue negative) cells. On day 5, the fraction of HIV-infected cells was determined using the K57-FITC conjugated monoclonal antibody to the HIV p24 antigen. For this measurement, the cells in each flask were mixed, 1 ml of cell culture was removed from each flask and placed into round bottom centrifuge tubes. The cells were separated from the medium by centrifugation at 1500 RPM for 5 minutes, the supernatants were aspirated and discarded and the cell pellets suspended in a fixative. […] The final pellets were suspended in 0.5 ml of PBS and the percentage of HIV p24-positive cells was determined by FACS analysis.

For `N#Cc1ccc2ncnc(NCCc3ccccc3)c2c1` [compound 1], the 50% effective concentration (EC50) with HIV-1 amounted to 0.58 µM. In addition, the “growth of colon carcinoma cell line” value with SW480 and in the assay with HCT116 was “inhibited the growth” in each case. Moreover, the IC50 in the assay on DLD1 cells was about 5 µM; with HUVECs (3-day MTT), 10.4 µM; in the assay with KB-3-1 carcinoma cells (read-out: IC50, KB-3-1 proliferation, 3-day MTT), 44.2 µM. In addition, the “effect on HUVEC cell number relative to untreated control” value in the assay with HUVECs (0.625 or 1.25 μM) is “little or no effect”. In the assay on KB-3-1 carcinoma cells, the “IC50 KB-3-1 relative to IC50 for HUVEC cells” value came out at 4.3 fold. For the same compound, the “POC binding, ALK” value on ALK is recorded as 78 POC. At PRKG2, the “POC binding, PRKG2” value stood at 85 POC. Moreover, the “POC binding, ROCK1” value at ROCK1 is recorded as 79 POC. For the same compound, at MET, the “POC binding, MET” value turned out to be 86 POC. For the same compound, the “POC binding, RIOK2” value at RIOK2 is given as 23 POC. For the same compound, the “POC binding, LTK” value on LTK is given as 100 POC. Also, on ROS1, the “POC binding, ROS1” value is 63 POC. The “POC binding, PKACb” value at PKACb is recorded as 89 POC. Further, the “POC binding, PKACa” value at PKACa came to 82 POC. At JNK1, the “POC binding, JNK1” value was 45 POC. On ROCK2, the “POC binding, ROCK2” value turned out to be 89 POC. The “POC binding, PIM2” value on PIM2 was found to be 52 POC. In addition, the “decrease of paracrine tumor-promoting (antiapoptotic) effect of irradiated/senescent fibroblasts” value in assay [1] is about 3 fold.
